Measured values taken from patent publication US20230183310A1, “Polypeptide Compounds and Use Thereof in the Prevention or Treatment of Diabetes or Diabetic Complications” (Shenzhen Turier Biotech Co., Ltd., priority 2020, published 2023).
*1 amine or outer side, *2 acyl side, *3 side chain or, on linkers, in order; H or OH if unused. Primed or numbered codes have the meaning given here. Where no end group is shown, it is not given here. Side-chain parts run from the residue outwards. [ ]: non-standard residue; d: D form. The star is where a group is joined. C20 diacid = O=C(O)CCCCCCCCCCCCCCCCCCC(=O)*; γGlu = O=C(O)[C@H](CCC(=O)[*:2])N[*:1]; PEG2′ = not defined here; Aib = CC(C)(N)C(=O)O

How the values were obtained:
[1] = test system: db/db diabetic mice; test: Treatment of 12-week-old db/db diabetic mice: blood glucose, OGTT, ITT, ALT/AST, diabetic nephropathy indices; type: in vivo; settings: for weekly blood glucose (hypoglycemic effect): FIG. 4A, blood glucose at normal levels at week 1; for weekly blood glucose (hypoglycemic effect) / improving oral glucose tolerance (OGTT) / improving insulin resistance (ITT) / ALT and AST in serum (hepatoprotective function): 120 μg/kg s.c. daily; for improving oral glucose tolerance (OGTT): FIG. 4B, week 4; for improving insulin resistance (ITT): FIG. 4C, week 5; for ALT and AST in serum (hepatoprotective function): FIG. 4D; for H&E staining of kidneys: glomerular adhesion, ameliorative and therapeutic effects: FIG. 5B; for H&E staining of kidneys: glomerular adhesion, ameliorative and therapeutic effects / PAS staining of kidneys: ameliorative effects on glomerular mesangial region / collagen content (Sirius red, FN and α-SMA staining of kidneys): after 8 weeks; for H&E staining of kidneys: glomerular adhesion, ameliorative and therapeutic effects / collagen content (Sirius red, FN and α-SMA staining of kidneys): compared to semaglutide, SAR425899 and MED C18-acid groups; for PAS staining of kidneys: ameliorative effects on glomerular mesangial region: FIG. 5C; for collagen content (Sirius red, FN and α-SMA staining of kidneys): FIGS. 5D to 5F
Procedure: Normal mice born in the same litter; DC group: db/db mice control group). Blood glucose and body weight were measured on alternate days after daily administration of the medicament, and water intake and food intake were measured once a week. OGTT was measured at week 4, insulin tolerance (ITT) was measured at week 5, metabolism of mice was examined using mouse metabolic cages at weeks 6-7, and various serological and pathological indices were taken at week 8.
Type 2-diabetes mice were characterized by obesity, insulin resistance, hyperglycemia, dyslipidemia and hepatic fat vacuole-like degeneration.
After 6 weeks of medical treatment, the mice was collected for urine using metabolic cages, and the protein content in the urine was detected using relevant kits. After 7 weeks of medical treatment, the material was taken and blood was used to detect serological indicators such as blood creatinine and urea nitrogen.

[2] = test system: C57BL/6J mice; test: Oral glucose tolerance (OGTT), repeated glucose loads followed to 24 h after one s.c. dose; type: in vivo; settings: 100 μg/kg subcutaneously; for long-acting hypoglycemic effects compared to semaglutide: four OGTT curves (0-22 h)
Procedure: Eight-week-old male C57BL/6J mice (Model Animal Research Center, Nanjing University) were randomly grouped according to similar blood glucose (assessed by blood samples obtained from the tail tip), with six mice in each group. […] The initial blood samples (fasted blood glucose levels) were obtained after about 4 h. Subsequently, an oral dose of glucose (2 g/kg) was administered and the animals were placed back in their holding cages (t=0). […] The oral dose of glucose was then repeated at 8 h of administration, 12 h of administration and […], and blood glucose changes were detected and followed until 24 hours. The data were processed using the software GraphPadPrism to make a line graph of blood glucose changes, and the area under the curve was calculated to obtain an AUC graph, and the results are shown in FIG. 1.

[3] = test system: FN protein (fibronectin); test: Western blot of FN protein in high glucose-induced in vitro renal fibrosis cell model; type: cell-based, rat; settings: 10 μM; 30 mmol/L glucose; 48 h; mesangial and renal epithelial cells
Excerpt: Hyperglycemia and increased production of glycosylation end products will cause morphological changes such as proliferation and hypertrophy of glomerular mesangial cells, increase in extracellular matrix (ECM) and mesangial expansion, which will eventually lead to the loss of its physiological function. […] Therefore, this example used high glucose to induce MCS mesangial cells and NRK renal epithelial cells to construct an in vitro renal fibrosis cell model for screening medicaments useful for the treatment of diabetic nephropathy. The renal mesangial cell strain GMC and glomerular epithelial cells mTEC used in this example were both cells kept in the applicant's laboratory (both were extracted from rat renal primary cells) and cultured in low sugar medium containing 10% fetal bovine serum. The cells were starved with serum-free culture medium for 24 h when grew to 70% confluence. The cells were divided into the following 9 groups by adjusting the glucose concentration as follows: […]

[4] = test system: db/db diabetic mice; test: Dose determination in 8-week-old db/db diabetic mice: blood glucose and body weight; type: in vivo
Procedure: The db/db mice diabetic model (purchased from Nanjing University-Nanjing Institute of Biomedical Research, about 8 weeks, and blood glucose and body weight were measured to ensure the smooth subsequent experiments) was obtained, and the model mice were randomly divided into 12 groups (including polypeptide compounds 3, 8, 13, 15, semaglutide and physiological saline groups), with 6 mice in each group and no difference in basal body weight and blood glucose. Each group was injected subcutaneously with compound 3 (80 and 120 μg/kg, 2 groups), compound 8 (80 and 120 μg/kg, 2 groups), compound 13 (80 and 120 μg/kg, 2 groups), compound 15 (80 and 120 μg/kg, 2 groups), semaglutide (80 and 120 μg/kg, 2 groups) and physiological saline (DN group: normal mice born in the same litter; DC group: db/db mice control group) every day or every other day.
Blood glucose and body weight of mice were measured after daily administration and 6 h fasting on alternate days.

Substance: His-(D-Ser)-Gln-Gly-Thr-Phe-Thr-Ser-Asp-Leu-Ser-Lys-Gln-Lys(CO(CH2)14CH3)-Glu-Ser-Lys-Ala-Ala-Gln-Asp-Phe-Ile-Glu-Trp-Leu-Lys-Ala-Gly-Gly-Pro-Ser-Ser-Gly-Ala-Pro-Pro-Pro-Ser-NH2 (HXQGTFTSDLSKQKESKAAQDFIEWLKAGGPSSGAPPPS; D-Ser; palmitoyl lysine; C-terminal amide; SAR425899; (2)..(2) X=D-Ser; (14)..(14) A side chain of Lys is linked to -CO(CH2)14CH3) [compound reported in the prior art, synthesized by the applicant, reference compound]
- weekly blood glucose (hypoglycemic effect) [1]: significant hypoglycemic effects

Substance: His-(D-Ser)-Gln-Gly-Thr-Phe-Thr-Ser-Asp-Lys(Gly-Gly-Ser-Gly-Ser-Gly-γGlu-CO(CH2)18-COOH)-Ser-Lys-Tyr-Leu-Glu-Aib-Lys-Ala-Ala-Gln-Asp-Phe-Val-Glu-Trp-Leu-Lys-Ala-Gly-Gly-Pro-Ser-Ser-Gly-Ala-Pro-Pro-Pro-Ser-NH2 (HXQGTFTSDKSKYLEXKAAQDFVEWLKAGGPSSGAPPPS; D-Ser, Aib; γGlu-C20 diacid lipidation; C-terminal amide; (2)..(2) X=D-Ser; (10)..(10) A side chain of Lys is linked to -Gly-Gly-Ser-Gly-Ser-Gly-AGlu-CO(CH2)18-COOH; (16)..(16) X=Aib) [Compound 14]
- long-acting hypoglycemic effects compared to semaglutide [2]: superior and significant long-acting hypoglycemic effects
- FN protein expression (Western blot) [3]: inhibited FN expression more significantly
- weekly blood glucose (hypoglycemic effect) [1]: significant hypoglycemic effects
- improving oral glucose tolerance (OGTT) [1]: performed more excellent
- improving insulin resistance (ITT) [1]: performed more excellent
- ALT and AST in serum (hepatoprotective function) [1]: more excellent hepatoprotective functions
- H&E staining of kidneys: glomerular adhesion, ameliorative and therapeutic effects [1]: more significant
- PAS staining of kidneys: ameliorative effects on glomerular mesangial region [1]: more significant
- collagen content (Sirius red, FN and α-SMA staining of kidneys) [1]: improved more significantly

Substance: His-(D-Ser)-Gln-Gly-Thr-Phe-Thr-Ser-Asp-Lys(PEG2-PEG2-CO(CH2)18CO2H)-Ser-Lys-Tyr-Leu-Glu-Aib-Lys-Ala-Ala-Gln-Asp-Phe-Val-Glu-Trp-Leu-Lys-Ala-Gly-Gly-Pro-Ser-Ser-Gly-Ala-Pro-Pro-Pro-Ser-NH2 (H[dS]QGTFTSDK([PEG2′-PEG2′-C20 diacid])SKYLE[Aib]KAAQDFVEWLKAGGPSSGAPPPS-NH2) [Compound 2]
- long-acting hypoglycemic effects compared to semaglutide [2]: superior and significant long-acting hypoglycemic effects

Substance: His-(D-Ser)-Gln-Gly-Thr-Phe-Thr-Ser-Asp-Tyr-Ser-Lys-Lys(PEG2-PEG2-γGlu-(CH2)17COOH)-Leu-Asp-Ser-Glu-Arg-Ala-Arg-Asp-Phe-Val-Ala-Trp-Leu-Val-Ala-Gly-Gly-NH2 (H[dS]QGTFTSDYSKKLDSERARDFVAWLVAGG-NH2; not fully specified (residue 13); printed as His-(D-Ser)-Gln-Gly-Thr-Phe-Thr-Ser-Asp-Tyr-Ser-Lys-Lys(PEG2-PEG2-γGlu-(CH2)17COOH)-Leu-Asp-Ser-Glu-Arg-Ala-Arg-Asp-Phe-Val-Ala-Trp-Leu-Val-Ala-Gly-Gly-NH2) [MED C18-acid, compound reported in the prior art, synthesized by the applicant, reference compound]
- weekly blood glucose (hypoglycemic effect) [1]: significant hypoglycemic effects

Substance: His-Aib-Gln-Gly-Thr-Phe-Thr-Ser-Asp-Lys(Gly-Gly-Ser-Gly-Ser-Gly-γGlu-CO(CH2)18-COOH)-Ser-Lys-Tyr-Leu-Asp-Glu-Arg-Ala-Ala-Gln-Asp-Phe-Iva-Gln-Trp-Leu-Leu-Asp-Gly-Gly-Pro-Ser-Ser-Gly-Aib-Pro-Pro-Pro-Ser-NH2 (HXQGTFTSDKSKYLDERAAQDFXQWLLDGGPSSGXPPPS; Aib, Iva; γGlu-C20 diacid lipidation; C-terminal amide; (2)..(2) X=Aib; (10)..(10) A side chain of Lys is linked to -Gly-Gly-Ser-Gly-Ser-Gly-AGlu-CO(CH2)18-COOH; (23)..(23) X=Isovaline; (35)..(35) X=Aib) [Compound 16]
- weekly blood glucose (hypoglycemic effect) [1]: significant hypoglycemic effects
- improving oral glucose tolerance (OGTT) [1]: performed more excellent
- improving insulin resistance (ITT) [1]: performed more excellent
- ALT and AST in serum (hepatoprotective function) [1]: more excellent hepatoprotective functions
- H&E staining of kidneys: glomerular adhesion, ameliorative and therapeutic effects [1]: more significant
- PAS staining of kidneys: ameliorative effects on glomerular mesangial region [1]: more significant
- collagen content (Sirius red, FN and α-SMA staining of kidneys) [1]: improved more significantly

Substance: His-Aib-Gln-Gly-Thr-Phe-Thr-Ser-Asp-Lys(PEG2-PEG2-γGlu-CO(CH2)18CO2H)-Ser-Lys-Tyr-Leu-Glu-Aib-Lys-Ala-Ala-Gln-Asp-Phe-Val-Glu-Trp-Leu-Lys-Ala-Gly-Gly-Pro-Ser-Ser-Gly-Ala-Pro-Pro-Pro-Ser-NH2 (H[Aib]QGTFTSDK([PEG2′-PEG2′-γGlu-C20 diacid])SKYLE[Aib]KAAQDFVEWLKAGGPSSGAPPPS-NH2) [Compound 1]
- long-acting hypoglycemic effects compared to semaglutide [2]: superior and significant long-acting hypoglycemic effects

Substance: Semaglutide [reference compound]
- blood glucose (glucose-lowering effect) ([4]; FIG. 3A, daily s.c., 120 μg/kg, vs saline DC group): better hypoglycemic effect, after which it was maintained at a more stable normoglycemic level, but its hypoglycemic effect was not significant
- blood glucose (hypoglycemic effect) ([4]; FIG. 3B, every other day s.c., 80 μg/kg): the hypoglycemic effect was not significant
- blood glucose (hypoglycemic effect) ([4]; FIG. 3B, every other day s.c., 120 μg/kg): the hypoglycemic effect was not significant
- subsequent blood glucose course (long-lasting effect) ([4]; FIG. 3B, every other day s.c., 120 μg/kg, from day 3 / after days 3-5): rebounded on day 3, and its long-lasting effect was not enough
- AUC / improvement in glucose tolerance in all four OGTT curves ([2]; four OGTT curve periods (0-22 h), compared to control PBS): significantly reduced (P<0.05)
- weekly blood glucose (hypoglycemic effect) [1]: significant hypoglycemic effects
